Reference: ChEMBL document CHEMBL1201862, “PubChem BioAssay data set” (2004)
Active and inactive are the calls of the source.

Tests used:
Streptokinase A = molecular target: T1, Streptokinase A (Streptococcus pyogenes serotype M1, UniProt P10520); assay: S. pyogenes streptokinase expression inhibitors, potency, dose response, plasminogen activation absorbance, OD405 (AID 1914); format: functional, Streptococcus pyogenes M1 GAS;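 also: secreted streptokinase activity via plasminogen activation per viability signal from cell pellet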
T1 sequence (P10520 whole entry): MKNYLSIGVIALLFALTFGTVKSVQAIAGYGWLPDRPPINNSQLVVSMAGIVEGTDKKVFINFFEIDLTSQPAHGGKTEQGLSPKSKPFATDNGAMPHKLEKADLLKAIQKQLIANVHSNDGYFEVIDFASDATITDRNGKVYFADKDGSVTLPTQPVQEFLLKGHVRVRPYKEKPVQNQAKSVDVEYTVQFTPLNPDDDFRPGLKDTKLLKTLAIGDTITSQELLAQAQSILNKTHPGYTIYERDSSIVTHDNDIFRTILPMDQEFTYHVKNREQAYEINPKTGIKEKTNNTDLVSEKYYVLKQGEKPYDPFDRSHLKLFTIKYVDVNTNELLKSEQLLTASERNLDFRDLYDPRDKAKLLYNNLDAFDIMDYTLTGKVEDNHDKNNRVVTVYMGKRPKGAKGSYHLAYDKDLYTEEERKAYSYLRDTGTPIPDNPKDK

[1] = molecular target: UDP-galactopyranose mutase (Mycobacterium tuberculosis, UniProt P9WIQ1); assay: Inhibitors of Mycobacterium tuberculosis UDP-galactopyranose mutase (UGM) enzyme Measured in Biochemical System Using Plate Reader - 2105-02_Inhibitor_Dose_CherryPick_Activity. [Related pubchem assays (depositor defined):AID504439]
Beta Lactamase [2] = molecular target: T2, Beta Lactamase (Pseudomonas aeruginosa, UniProt Q932Y6);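 also: confirmatory high-throughput screen measuring VIM-2 metallo-beta-lactamase inhibition by epi-absorbance in dose response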
Streptococcus = assay: Group A Streptococcus viability loss, dose response, counter-screen for streptokinase expression inhibitor project, luminescence, BacTiterGlo (AID 1915); format: functional, organism-based;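 also: potency for reduction of bacterial viability or growth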
[3] = molecular target: T3, Heat shock factor protein 1 (Mus musculus, UniProt P38532); assay: HSF1 potentiators in luciferase reporter cells, confirmation, cell-based, NIH3T3, luminescence, dose retest (AID 435004); format: functional;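 also: stress induced by proteasome inhibitor MG132 added 30 min after compound; luciferase reporter driven by HSF1 response element in NIH3T3 cells; actives raise luminescence as potentiators of the MG132 stress response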
T3 sequence (P38532 whole entry): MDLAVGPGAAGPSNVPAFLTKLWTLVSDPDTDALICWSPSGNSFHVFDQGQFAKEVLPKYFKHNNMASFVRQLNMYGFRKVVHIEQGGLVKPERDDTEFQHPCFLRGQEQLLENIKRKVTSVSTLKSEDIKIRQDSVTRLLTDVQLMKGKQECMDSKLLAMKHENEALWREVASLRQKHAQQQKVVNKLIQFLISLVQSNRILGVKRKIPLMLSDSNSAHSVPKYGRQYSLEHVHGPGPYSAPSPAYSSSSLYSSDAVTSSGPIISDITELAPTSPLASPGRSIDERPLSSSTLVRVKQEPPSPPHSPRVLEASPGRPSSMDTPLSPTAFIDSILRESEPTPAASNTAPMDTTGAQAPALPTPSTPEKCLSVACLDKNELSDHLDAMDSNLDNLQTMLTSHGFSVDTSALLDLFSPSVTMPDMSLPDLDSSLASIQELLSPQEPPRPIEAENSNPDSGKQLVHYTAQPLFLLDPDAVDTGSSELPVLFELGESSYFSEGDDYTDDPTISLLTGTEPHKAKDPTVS

HEK293 [4] = assay: HEK cell cytotoxicity by LDH release, dose response, cytotoxicity control for IDE activator project, fluorescence, HEK cells (AID 588440); format: functional, cell-based; conditions: Homo sapiens;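 also: cytotoxicity by LDH release measuring loss of membrane integrity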
Beta Lactamase [5] = molecular target: T2, Beta Lactamase; assay: beta-lactamase reporter inhibitor potency, dose response, artefact control for TLR9-MyD88 binding inhibitor project, BLA reporter cells, FRET fluorescence (AID 588341); format: cell-based;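 also: cell based assay in CHO-K1 cells stably expressing beta-lactamase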
[6] = test system: Streptococcus sp. 'group A'; assay: growth inhibition of control SK(-) GAS strain, dose response, counter-screen for streptokinase expression inhibitor project, luminescence, kanamycin, BacTiterGlo, confirmation (AID 1900); format: functional, organism-based
CHO = assay: cytotoxicity in TLR9-MyD88 CHO cells, dose response, cytotoxicity control for TLR9-MyD88 binding inhibitor project, cell-based, luminescence (AID 588339); format: functional, hamster; conditions: Cricetulus griseus;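 also: CHO cells stably coexpressing TLR9 and MyD88 fusions from primary screen; compound exposure lasted 48 hours before viability readout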
ORF 73 = ORF 73 (Human herpesvirus 8, UniProt O40947); assay: inhibitors of C-LANA binding to LBS DNA, dose response, biochemical, fluorescence polarization, cherry-picked samples (AID 504725); parameters: species or system Human gammaherpesvirus 8;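 also: fluorescence polarization of a labeled DNA duplex reporting LANA DNA binding; potency is for inhibitors that block LANA binding to the DNA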
Keap1/Nrf2 = Keap1/Nrf2 (Homo sapiens, UniProt Q14145); assay: Keap1-Nrf2 protein-protein interaction inhibitors, dose response, biochemical, fluorescence polarization, cherry-picked samples (AID 588683)
Insulin-degrading enzyme [7] = molecular target: T4, Insulin-degrading enzyme (Homo sapiens, UniProt P14735); assay: activators of recombinant IDE enzyme, dose response, counter-screen for IDE activator project, biochemical, fluorescence polarization (AID 588681)
T4 sequence (P14735 whole entry): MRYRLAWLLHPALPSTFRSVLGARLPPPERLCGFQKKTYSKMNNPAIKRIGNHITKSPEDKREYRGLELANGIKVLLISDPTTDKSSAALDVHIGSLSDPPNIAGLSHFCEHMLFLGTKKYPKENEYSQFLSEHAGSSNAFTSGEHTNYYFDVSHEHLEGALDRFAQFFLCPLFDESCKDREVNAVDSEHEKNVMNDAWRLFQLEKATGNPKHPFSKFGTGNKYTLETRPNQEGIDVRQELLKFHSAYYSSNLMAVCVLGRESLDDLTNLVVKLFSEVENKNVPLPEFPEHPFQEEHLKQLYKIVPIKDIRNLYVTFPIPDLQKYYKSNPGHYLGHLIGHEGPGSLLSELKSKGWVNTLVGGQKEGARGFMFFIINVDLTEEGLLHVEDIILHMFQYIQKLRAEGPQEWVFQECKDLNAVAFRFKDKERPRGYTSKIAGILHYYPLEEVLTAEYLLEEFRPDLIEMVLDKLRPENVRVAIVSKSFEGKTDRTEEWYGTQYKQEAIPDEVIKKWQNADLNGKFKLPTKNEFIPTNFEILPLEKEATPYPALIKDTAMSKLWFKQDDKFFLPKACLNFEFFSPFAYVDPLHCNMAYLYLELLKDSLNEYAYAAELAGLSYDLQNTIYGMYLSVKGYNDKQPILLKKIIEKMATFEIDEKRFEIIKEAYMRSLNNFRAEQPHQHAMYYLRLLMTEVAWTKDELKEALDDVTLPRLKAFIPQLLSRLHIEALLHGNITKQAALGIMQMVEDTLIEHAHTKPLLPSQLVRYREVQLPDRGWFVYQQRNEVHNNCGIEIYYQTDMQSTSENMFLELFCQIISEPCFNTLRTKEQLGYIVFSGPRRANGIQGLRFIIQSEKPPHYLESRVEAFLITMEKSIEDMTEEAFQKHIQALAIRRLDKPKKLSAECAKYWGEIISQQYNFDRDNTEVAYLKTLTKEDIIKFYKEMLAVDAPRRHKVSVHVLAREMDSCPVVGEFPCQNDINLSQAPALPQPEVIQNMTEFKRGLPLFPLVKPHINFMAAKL

Beta-lactamase [8] = molecular target: Beta-lactamase (Pseudomonas aeruginosa, UniProt Q79MP6);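 also: biochemical dose-response test of metallo-beta-lactamase enzyme inhibition, read out by epi-absorbance; purified recombinant IMP-1 metallo-beta-lactamase with nitrocefin as substrate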
HeLa = assay: HeLa cell cytotoxicity, dose response, cytotoxicity control, 24 h, cherry-picked samples (AID 504726); format: functional, cell-based; conditions: Homo sapiens;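 also: potency for cytotoxicity as loss of luminescence signal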
Beta-lactamase [9] = molecular target: Beta-lactamase (Salmonella choleraesuis (strain SC-B67), UniProt Q5J463)
Insulin-degrading enzyme [10] = molecular target: T4, Insulin-degrading enzyme; assay: activators of endogenous IDE in HEK cells, dose response, cell-based, fluorescence polarization (AID 588439); format: functional
HEK293 [11] = assay: optical interference in Abeta FP readout, dose response, artefact control for IDE activator project, biochemical, fluorescence polarization (AID 588442); format: functional, cell-based; conditions: Homo sapiens
[12] = Luminescence Cell-Based Dose Retest to Confirm Inhibitors of Cancer Stem Cells. [Related pubchem assays (depositor defined):AID2717, AID2721]; format: functional; conditions: Homo sapiens
[13] = cytotoxicity in HMLE control line with eGFP shRNA, dose response, counter-screen for HMLE_sh_ECad selective toxicity project, cell-based, HMLE_sh_eGFP, luminescence (AID 463074); format: functional, Homo sapiens;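 also: HMLE human mammary epithelial cells expressing control shRNA against eGFP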
HEK293 [14] = assay: cells; conditions: Homo sapiens
HEK293 [15] = assay: cells; conditions: Homo sapiens; remark: listed apart in the source
HEK293 [16] = assay: cytotoxicity in HEK293T NF-kB-Luc cells, SAR follow-up, cytotoxicity control for NF-kB activator project, cell-based, resazurin fluorescence (AID 493251); format: functional; conditions: Homo sapiens
HEK293 [17] = assay: SAR Analysis of small molecule inhibitors of B-cell specific antigen receptor-induced NF-kB activation in a HEK-293T cell line using a luminescence assay - Set 2. [Related pubchem assays (depositor defined):AID435022, AID435025, AID489021]; format: functional, cell-based; conditions: Homo sapiens
Jurkat = assay: SAR Analysis of small molecule inhibitors of […] specific antigen receptor-induced NF-kB activation in a Jurkat cell line using a luminescence assay - Set 3. [Related pubchem assays (depositor defined):AID435022, AID435025, AID465]; format: functional, cell-based; conditions: Homo sapiens
[18] = molecular target: Dual specificity protein phosphatase 3 (Homo sapiens, UniProt P51452); assay: SAR VHR1 Fluorescent Assay for In Vitro dose response studies Set 3. [Related pubchem assays (depositor defined):AID1654, AID1661, AID1878]; format: functional
Sequence of Dual specificity protein phosphatase 3 (P51452 whole entry): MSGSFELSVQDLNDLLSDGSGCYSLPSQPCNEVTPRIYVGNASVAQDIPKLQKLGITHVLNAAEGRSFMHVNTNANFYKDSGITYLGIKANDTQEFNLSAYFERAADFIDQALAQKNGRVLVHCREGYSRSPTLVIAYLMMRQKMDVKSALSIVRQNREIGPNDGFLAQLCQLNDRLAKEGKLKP

T2 sequence (Q932Y6 whole entry): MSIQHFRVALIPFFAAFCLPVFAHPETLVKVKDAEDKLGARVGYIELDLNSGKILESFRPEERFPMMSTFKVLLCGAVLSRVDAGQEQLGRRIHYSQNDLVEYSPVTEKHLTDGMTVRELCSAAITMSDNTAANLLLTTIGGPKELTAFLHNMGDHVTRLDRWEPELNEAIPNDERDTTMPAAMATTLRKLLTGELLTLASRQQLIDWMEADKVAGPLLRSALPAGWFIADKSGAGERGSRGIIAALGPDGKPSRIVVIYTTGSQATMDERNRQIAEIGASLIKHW
Sequence of Beta-lactamase (Salmonella choleraesuis (strain SC-B67), UniProt Q5J463) (Q5J463 whole entry): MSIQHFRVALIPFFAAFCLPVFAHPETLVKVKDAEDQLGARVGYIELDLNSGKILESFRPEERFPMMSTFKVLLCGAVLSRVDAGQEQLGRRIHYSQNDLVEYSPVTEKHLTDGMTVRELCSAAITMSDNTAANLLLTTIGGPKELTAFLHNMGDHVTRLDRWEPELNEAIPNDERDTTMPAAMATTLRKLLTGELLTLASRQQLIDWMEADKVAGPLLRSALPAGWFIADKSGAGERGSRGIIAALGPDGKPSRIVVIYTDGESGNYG
Sequence of ORF 73 (O40947 whole entry): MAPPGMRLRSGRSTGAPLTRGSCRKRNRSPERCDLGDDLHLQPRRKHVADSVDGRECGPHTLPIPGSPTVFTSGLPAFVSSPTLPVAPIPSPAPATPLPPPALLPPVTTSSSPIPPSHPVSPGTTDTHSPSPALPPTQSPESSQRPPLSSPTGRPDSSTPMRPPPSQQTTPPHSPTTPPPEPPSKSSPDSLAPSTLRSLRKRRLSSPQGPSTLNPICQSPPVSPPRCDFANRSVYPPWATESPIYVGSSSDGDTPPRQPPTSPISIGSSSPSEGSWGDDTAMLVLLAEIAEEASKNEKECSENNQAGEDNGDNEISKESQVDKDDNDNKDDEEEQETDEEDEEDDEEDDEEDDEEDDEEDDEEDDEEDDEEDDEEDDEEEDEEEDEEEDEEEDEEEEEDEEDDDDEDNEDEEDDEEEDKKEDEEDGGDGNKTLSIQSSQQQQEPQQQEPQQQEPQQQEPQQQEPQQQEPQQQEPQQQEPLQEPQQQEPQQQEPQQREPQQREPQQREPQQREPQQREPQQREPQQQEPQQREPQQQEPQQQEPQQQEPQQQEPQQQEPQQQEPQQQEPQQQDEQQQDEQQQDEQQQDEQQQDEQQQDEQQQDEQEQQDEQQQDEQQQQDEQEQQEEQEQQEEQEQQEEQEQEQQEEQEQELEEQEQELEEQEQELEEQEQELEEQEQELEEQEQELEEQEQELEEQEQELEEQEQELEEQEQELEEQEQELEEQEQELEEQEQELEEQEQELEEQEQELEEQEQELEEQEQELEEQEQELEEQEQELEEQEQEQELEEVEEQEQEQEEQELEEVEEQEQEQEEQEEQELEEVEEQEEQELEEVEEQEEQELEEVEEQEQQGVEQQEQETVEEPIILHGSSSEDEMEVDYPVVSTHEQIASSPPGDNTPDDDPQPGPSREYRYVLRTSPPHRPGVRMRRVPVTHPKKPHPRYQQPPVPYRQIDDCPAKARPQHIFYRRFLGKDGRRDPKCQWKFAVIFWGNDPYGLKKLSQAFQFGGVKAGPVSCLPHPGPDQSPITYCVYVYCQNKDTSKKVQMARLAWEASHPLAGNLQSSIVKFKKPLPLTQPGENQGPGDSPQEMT
Sequence of Keap1/Nrf2 (Q16236 whole entry): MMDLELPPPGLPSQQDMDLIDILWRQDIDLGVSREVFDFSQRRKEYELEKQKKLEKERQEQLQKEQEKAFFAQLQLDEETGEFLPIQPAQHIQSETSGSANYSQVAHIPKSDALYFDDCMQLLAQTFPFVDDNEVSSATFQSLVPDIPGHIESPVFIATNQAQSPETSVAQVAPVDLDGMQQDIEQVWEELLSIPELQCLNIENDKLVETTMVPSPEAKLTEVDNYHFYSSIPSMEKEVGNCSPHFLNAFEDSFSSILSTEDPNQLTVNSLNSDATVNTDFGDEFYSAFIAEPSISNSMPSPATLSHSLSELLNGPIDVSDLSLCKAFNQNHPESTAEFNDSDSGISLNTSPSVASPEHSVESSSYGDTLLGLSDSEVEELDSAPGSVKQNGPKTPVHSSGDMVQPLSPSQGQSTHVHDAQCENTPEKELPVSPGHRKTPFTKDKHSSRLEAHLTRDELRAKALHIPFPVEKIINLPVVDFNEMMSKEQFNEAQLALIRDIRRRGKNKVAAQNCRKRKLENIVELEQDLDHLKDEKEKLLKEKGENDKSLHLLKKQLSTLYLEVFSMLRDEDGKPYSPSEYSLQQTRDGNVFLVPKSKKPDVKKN
Sequence of Keap1/Nrf2 (Q14145 whole entry): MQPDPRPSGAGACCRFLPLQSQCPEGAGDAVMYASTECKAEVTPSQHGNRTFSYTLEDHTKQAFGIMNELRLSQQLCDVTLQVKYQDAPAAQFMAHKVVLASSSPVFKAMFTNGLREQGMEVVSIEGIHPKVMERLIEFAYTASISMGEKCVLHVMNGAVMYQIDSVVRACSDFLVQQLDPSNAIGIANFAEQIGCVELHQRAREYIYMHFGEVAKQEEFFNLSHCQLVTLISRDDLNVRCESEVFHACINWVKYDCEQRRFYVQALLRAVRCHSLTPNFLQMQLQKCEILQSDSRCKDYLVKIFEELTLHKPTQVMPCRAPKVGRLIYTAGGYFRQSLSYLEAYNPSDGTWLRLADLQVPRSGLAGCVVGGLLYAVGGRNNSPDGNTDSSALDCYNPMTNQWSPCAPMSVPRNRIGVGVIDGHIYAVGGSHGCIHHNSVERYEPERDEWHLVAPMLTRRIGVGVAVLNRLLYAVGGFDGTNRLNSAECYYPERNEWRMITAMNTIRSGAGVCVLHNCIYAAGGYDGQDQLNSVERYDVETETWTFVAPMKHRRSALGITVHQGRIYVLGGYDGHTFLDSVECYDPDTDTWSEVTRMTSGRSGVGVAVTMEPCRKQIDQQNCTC
Sequence of UDP-galactopyranose mutase (P9WIQ1 whole entry): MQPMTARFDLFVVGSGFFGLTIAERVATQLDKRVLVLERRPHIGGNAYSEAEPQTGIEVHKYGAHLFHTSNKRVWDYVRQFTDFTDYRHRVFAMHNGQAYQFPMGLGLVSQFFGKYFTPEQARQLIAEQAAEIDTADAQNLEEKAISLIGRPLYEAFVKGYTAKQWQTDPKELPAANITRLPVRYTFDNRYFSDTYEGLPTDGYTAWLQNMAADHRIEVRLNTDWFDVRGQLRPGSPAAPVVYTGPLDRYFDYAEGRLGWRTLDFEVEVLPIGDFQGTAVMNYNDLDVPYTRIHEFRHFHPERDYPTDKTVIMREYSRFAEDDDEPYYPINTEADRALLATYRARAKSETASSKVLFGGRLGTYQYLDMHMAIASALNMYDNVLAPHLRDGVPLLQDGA
Sequence of Beta-lactamase (Pseudomonas aeruginosa, UniProt Q79MP6) (Q79MP6 whole entry): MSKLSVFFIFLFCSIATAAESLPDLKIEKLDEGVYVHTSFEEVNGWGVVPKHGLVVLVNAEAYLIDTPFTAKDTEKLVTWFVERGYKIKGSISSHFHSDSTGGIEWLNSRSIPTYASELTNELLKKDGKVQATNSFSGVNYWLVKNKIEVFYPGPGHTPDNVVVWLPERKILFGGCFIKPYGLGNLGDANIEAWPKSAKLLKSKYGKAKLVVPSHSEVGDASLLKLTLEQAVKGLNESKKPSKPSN

CCCC/N=C1\C(=O)N(C)c2cccc3c(O)c4ccccc4c1c23
inactive: IC50 (Beta Lactamase [2]) 11.9 µM | IC50 (HEK293 [4]) > 89.2 µM | IC50 (CHO) 20.1 µM | EC50 (Insulin-degrading enzyme [7]) > 54.7 µM | IC50 (Beta-lactamase [8]) 14.3 µM | AC50 (HeLa) > 350 µM | EC50 (Insulin-degrading enzyme [10]) > 54.7 µM | EC50 (HEK293 [11]) > 54.7 µM
active: EC50 (Streptokinase A) 21.4 µM | AC50 [1] 1.04 µM | EC50 (Streptococcus) 35.4 µM | EC50 [3] 56.5 µM | IC50 (Beta Lactamase [5]) 9.06 µM | EC50 [6] 6.81 µM | AC50 (ORF 73) 4.99 µM | AC50 (Keap1/Nrf2) 1.13 µM | IC50 (Beta-lactamase [9]) 4.28 µM

O=C(CSc1ccc(F)cc1)N1CCC(c2nc3ccccc3s2)CC1
active: AC50 [12] 40.5 µM | AC50 [13] 26.9 µM

COc1ccc(N2C(=O)NC(NC(=O)C(C)(C)C)(C(F)(F)F)C2=O)cc1 (stereo not given)
inactive: EC50 (HEK293 [14]) > 59.7 µM | EC50 (HEK293 [15]) > 59.7 µM

CC(C)(C)c1ccc(-c2noc(CCC(=O)NC3CCCC3)n2)cc1
inactive: IC50 (HEK293 [16]) > 80 µM
active: IC50 (HEK293 [17]) 0.78 µM | IC50 (Jurkat) 0.48 µM

Cc1ccc(C(=O)NC(=S)Nc2ccc(Cl)c(-c3nc4ccccc4s3)c2)cc1
inactive: IC50 [18] > 66 µM
